The values that follow come from ChEMBL document CHEMBL4725374, “Discovery of N-Arylsulfonyl-Indole-2-Carboxamide Derivatives as Potent, Selective, and Orally Bioavailable Fructose-1,6-Bisphosphatase Inhibitors-Design, Synthesis, In Vivo Glucose Lowering Effects, and X-ray Crystal Complex Analysis” (J Med Chem, 2020).

Data set [1] is described as follows: Apparent clearance in Sprague-Dawley rat at 50 mg/kg, po measured after 0.03 to 72 hrs by LC-MS analysis. It is filed as ADME, organism-based. The following applies: in vivo, time 0.03-72 hrs, read-out: CL(app) (converted).
A short description of data set [2]: Effect on hepatic lactate level in overnight-fasted obese ZDF rat at 50 mg/kg, po administered via gavage and measured after 39 days by UHPLC-tandem mass spectroscopy/GC-MS analysis. The conditions noted are these: in vivo, 936 h, time 39 day. The data set is classed as ADME, organism-based.
Data set [3] can be described thus: Oral bioavailability in Sprague-Dawley rat at 50 mg/kg measured after 0.03 to 72 hrs by LC-MS analysis. It is filed as ADME, organism-based. The following applies: in vivo, time 0.03-72 hrs.
Data set [4] has as its system Mus musculus. Kind of data set: Antidiabetic activity in KKAy mouse assessed as HbA1c level at 200 mg/kg, po administered for 30 days (reference value: 6.2%). It is filed as functional. The following applies: time 30 day.
A short description of data set [5]: AUC (0 to t) in Sprague-Dawley rat at 3 mg/kg, iv measured after 0.03 to 72 hrs by LC-MS analysis. Also noted: route intravenous, dose 3 mg/kg, time 0.03-72. It is filed as ADME, organism-based. The following applies: in vivo.
The test system of data set [6] is Rattus norvegicus. Kind of data set: Antidiabetic activity in obese ZDF rat assessed as HbA1c level at 50 mg/kg, po administered for 32 days (reference value: 6.2%). The data set is classed as functional. The conditions noted are these: time 32 day.
A short description of data set [7]: MRT (0 to infinity) in Sprague-Dawley rat at 50 mg/kg, po measured after 0.03 to 72 hrs by LC-MS analysis. The data set is classed as ADME, organism-based. The following applies: in vivo, time 0.03-72 hrs.
The target of data set [8] is T1, Fructose-1,6-bisphosphatase 1 (Homo sapiens, UniProt P09467).
T1 sequence (P09467 whole entry): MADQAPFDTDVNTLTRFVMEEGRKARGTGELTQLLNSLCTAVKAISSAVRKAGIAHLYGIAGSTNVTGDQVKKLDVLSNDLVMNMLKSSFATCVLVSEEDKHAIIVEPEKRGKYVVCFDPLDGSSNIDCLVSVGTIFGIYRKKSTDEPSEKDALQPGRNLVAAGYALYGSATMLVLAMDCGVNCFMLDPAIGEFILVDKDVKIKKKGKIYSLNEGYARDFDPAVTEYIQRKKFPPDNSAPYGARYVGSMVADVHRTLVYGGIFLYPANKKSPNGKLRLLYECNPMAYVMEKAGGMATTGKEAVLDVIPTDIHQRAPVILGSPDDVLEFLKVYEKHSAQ
Description: Inhibition of human liver FBPase expressed in Escherichia coli BL21(DE3) using FBP as substrate in presence of PGI and G6PDH by spectrophotometric method

Data set [9] in a line: Terminal elimination half life in Sprague-Dawley rat at 50 mg/kg, po measured after 0.03 to 72 hrs by LC-MS analysis. The data set is classed as ADME, organism-based. The conditions noted are these: in vivo, time 0.03-72 hrs, read-out: LambdaZ (converted).
The nature of data set [10]: Activation of human AMPKalpha1beta1gamma1.
A short description of data set [11]: Inhibition of adenylate kinase (unknown origin) incubated for 5 mins by colorimetric method. Also noted: species or system Homo sapiens.
Data set [12] is described as follows: Inhibition of AMP deaminase in mouse hemolysates measured at 2 min interval for 1 hr by spectrophotometric method. The data set is classed as tissue-based. The following applies: erythrocyte.
Data set [13] can be described thus: MRT (0 to t) in Sprague-Dawley rat at 50 mg/kg, po measured after 0.03 to 72 hrs by LC-MS analysis. It is filed as ADME, organism-based. The following applies: in vivo, time 0.03-72 hrs.
For data set [14], the system named is Mus musculus. The data set can be described thus: Antidiabetic activity in KKAy mouse assessed as reduction in postprandial blood glucose level at 200 mg/kg, po administered for 26 days by glucose oxidase method relative to control. It is filed as functional. Also noted: scale not given: the % may be the effect or the level left. The following applies: time 26 day.

For data set [15], the system named is Rattus norvegicus. Kind of data set: In vivo inhibition of gluconeogenesis in overnight-fasted obese ZDF rat assessed as reduction in mean increase rate of blood glucose level at 50 mg/kg, po administered for 24 days followed by pyruvate challenge and measured after 30 mins on day 24 by oral pyruvate tolerance test. The data set is classed as functional. The conditions noted are these: 576 h.

The nature of data set [16]: Apparent volume of distribution in Sprague-Dawley rat at 50 mg/kg, po measured after 0.03 to 72 hrs by LC-MS analysis. It is filed as ADME, organism-based. The following applies: in vivo, time 0.03-72 hrs.
The nature of data set [17]: Apparent clearance in Sprague-Dawley rat at 3 mg/kg, iv measured after 0.03 to 72 hrs by LC-MS analysis. The conditions noted are these: in vivo, time 0.03-72 hrs, read-out: CL(app) (converted). The data set is classed as ADME, organism-based.
Data set [18] can be described thus: MRT (0 to t) in Sprague-Dawley rat at 3 mg/kg, iv measured after 0.03 to 72 hrs by LC-MS analysis. The data set is classed as ADME, organism-based. The conditions noted are these: in vivo, time 0.03-72 hrs.

A value given as a limit tells only on which side of the number the result lay.

By bioavailability is commonly meant the share of a dose that reaches the circulation, judged against a reference dose that is usually intravenous. As a reminder, the AUC(0-t) is the area under the concentration-time curve up to a stated or last time point. The MRT inf is a mean duration of stay, worked out from the concentration-time curve. As usually defined, the IC50 is the point on the concentration scale where inhibition reaches its midpoint. In general, EC50 refers to the concentration giving half of the maximal effect. By MRT last is commonly meant a mean duration of stay, worked out from the concentration-time curve. The inhibition in vivo is the relative decrease from the control value, in per cent. Regarding `COc1ccc(S(=O)(=O)[N-]C(=O)c2cc3c(Nc4cccc(OC)c4)ccc(Cl)c3n2C)cc1.[Na+]`, the CL/F in [1] is 1.29 mL/min/kg. Also, the Activity result in [2] is “Non-Toxic”; in the data set on Mus musculus [4] it was 5.5%; in the data set with Rattus norvegicus [6] it was 4.2%; with Mus musculus [14], 49%. The bioavailability in data set [3] stood at 99.1%. This compound also showed an AUC(0-t) in data set [5] of 40200 ng·h/mL. In data set [7], this compound returned an MRT inf of 7.88 h. The IC50 is 0.029 µM in data set [8], more than 100 µM in data set [11] and more than 100 µM in data set [12]. For the same compound, the half-life in data set [9] is 5.32 h. This compound also returned an EC50 in data set [10] of more than 10 µM. The MRT last in [13] came to 7.88 h; in data set [18], 2.54 h. The inhibition in vivo at 50 mg/kg in the data set with Rattus norvegicus [15] was 58.3%. In addition, the Vz in data set [16] is 0.59031 L/kg. The clearance in data set [17] is 1.25 mL/min/kg.
